# Measurements published in patent publication US7700584B2 (Hangzhou Minsheng Pharmaceuticals Co., Ltd., priority 2004, dated 2010).
# Read-outs that look alike come from different tables or passages of the source.
# Experiments:
# [1] = biological target: T1, HIV-1 reverse transcriptase (Human immunodeficiency virus type 1 group M subtype B, UniProt P04585); test: Screening for the in vitro activity against the HIV-1 reverse transcriptase; format: biochemical
# T1 construct: purchased
# Protocol: Principle of the test: The template to which the HIV-1 reverse transcriptase interacts was covered onto the enzyme-lined template. In the optimal reaction conditions and system, HIV-1 RT will put the substrate comprising Biotin-dUTP onto the reaction template. The activity of the enzyme was measured as the amount of the integrating Biotin-dUTP in the reaction by using streptavidin-labeled horseradish peroxidase. Adding the sample to the reaction system can identify inhibitor of the enzyme.
# 1. HIV-1 RT: commercially available.
# 2. Treatment of the samples: Before use, the sample was dissolved in DMSO at a suitable concentration, then serially diluted (5×) with double distilled water, five serial dilutions per sample.
# 4. Methods: The diluted sample was added into the reaction buffer containing Biotin-dUTP and the genetic engineered target enzyme, and incubated in the optimal reaction conditions. A streptavidin-labeled horseradish peroxidase was added to visual the system, and OD450 was measured.
# 293 cells = test: Cell status of 293 cells treated with sample alone (herpes virus screening); conditions: 200 μg/ml, 24 hrs
# [2] = test system: LLC mouse Lewis lung carcinoma; test: In vitro inhibition rate to tumor cells (MTT), LLC; format: cell-based; conditions: Mus musculus, Lewis lung carcinoma, 50 μg/ml
# [3] = test system: Bel-7402 human hepatic carcinoma; test: In vitro inhibition rate to tumor cells (MTT), Bel-7402; format: cell-based; conditions: Homo sapiens, Bel-7402, 50 μg/ml, read-out: inhibition rate, Results (%) Bel-7402
# [4] = test system: HL-60 human promyelocytic leukemia; test: In vitro inhibition rate to tumor cells (MTT), HL-60; format: cell-based; conditions: Homo sapiens, HL-60, 50 μg/ml, read-out: inhibition rate, Results (%) HL-60
# [5] = test system: A-549 human lung adenocarcinoma; test: In vitro inhibition rate to tumor cells (MTT), A-549; format: cell-based; conditions: Homo sapiens, A549, 50 μg/ml, read-out: inhibition rate, Results (%) A-549
# [6] = test system: SMMC-7721 human hepatic carcinoma; test: In vitro inhibition rate to tumor cells (MTT), SMMC-7721; format: cell-based; conditions: Homo sapiens, SMMC-7721, 50 μg/ml, read-out: inhibition rate, Results (%) SMMC-7721
# [7] = test system: Hela human cervical carcinoma; test: In vitro inhibition rate to tumor cells (MTT), Hela; format: cell-based; conditions: Homo sapiens, HeLa, 50 μg/ml, read-out: inhibition rate, Results (%) Hela
# [8] = test system: MCF-7 human mammary adenocarcinoma; test: In vitro inhibition rate to tumor cells (MTT), MCF-7; format: cell-based; conditions: Homo sapiens, MCF7, 50 μg/ml, read-out: inhibition rate, Results (%) MCF-7
# [9] = test system: U-937 human histocytic lymphoma; test: In vitro inhibition rate to tumor cells (MTT), U-937; format: cell-based; conditions: Homo sapiens, U-937, 50 μg/ml, read-out: inhibition rate, Results (%) U-937
# [10] = biological target: T2, HIV-1 proteinase (HIV-1 PR) (Human immunodeficiency virus type 1 group M subtype B, UniProt P04585); test: Screening for in vitro activity against HIV-1 proteinase; format: biochemical
# T2 construct: HIV-1 proteinase digests the fluorescent-labeled substrate; purchased
# In short: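 Inhibition was scored from product fluorescence after the enzyme was added to buffer holding the labeled substrate and the test sample. Samples were five serial 5× dilutions in water from a DMSO solution. Indinavir served as the reference control; the enzyme was recombinant HIV-1 PR.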
smiles,measurement,setting,value
"C=C1CC2(OC(=O)C(C)C)OC3(CC2C(C)C)C(C)CCC13 (stereo not shown) [Compound 3, Curcumol isobutyrate]",inhibition rate of HIV-1 reverse transcriptase,[1]; 120 ug/ml,60%
same,IC50,"[1]; IC50, initial concentration 1/150 of the stock solution",< 392 µM
same,"Cytopathy and cell status, Sample",293 cells,Normal
same,inhibition at 50 µg/mL,[2]; Table 1,6.89%
same,inhibition at 50 µg/mL,[2]; Table 2 (repeated screening),0.02%
same,inhibition at 50 µg/mL,[3]; Table 1,14.4%
same,inhibition at 50 µg/mL,[3]; Table 2 (repeated screening),11%
same,inhibition at 50 µg/mL,[4]; Table 1,3.21%
same,inhibition at 50 µg/mL,[4]; Table 2 (repeated screening),4.89%
same,inhibition at 50 µg/mL,[5]; Table 1,7.76%
same,inhibition at 50 µg/mL,[5]; Table 2 (repeated screening),10.3%
same,inhibition at 50 µg/mL,[6]; Table 1,8.02%
same,inhibition at 50 µg/mL,[6]; Table 2 (repeated screening),8.96%
same,inhibition at 50 µg/mL,[7]; Table 1,69.2%
same,inhibition at 50 µg/mL,[7]; Table 2 (repeated screening),70.2%
same,inhibition at 50 µg/mL,[8]; Table 1,32.1%
same,inhibition at 50 µg/mL,[8]; Table 2 (repeated screening),22.4%
same,inhibition at 50 µg/mL,[9]; Table 1,91.7%
same,inhibition at 50 µg/mL,[9]; Table 2 (repeated screening),93%
same,inhibition at 0.08 µg/mL,"[10]; 0.08 μg/ml, read-out: Inhibition rate",4.98%
same,inhibition at 0.4 µg/mL,"[10]; 0.40 μg/ml, read-out: Inhibition rate",13.5%
same,inhibition at 2 µg/mL,"[10]; 2.0 μg/ml, read-out: Inhibition rate",9.64%
same,inhibition at 10 µg/mL,"[10]; 10 μg/ml, read-out: Inhibition rate",12.1%
same,IC50,"[10]; IC50, five 5× serial dilutions from 50 μg/ml",> 163 µM
same,inhibition at 50 µg/mL,"[10]; read-out: Inhibition rate, 50 μg/ml",5.55%
